Source: PMC10258794, “To Fold or Not to Fold: Diastereomeric Optimization of an α-Helical Antimicrobial Peptide” (Journal of Medicinal Chemistry, 2023)
In brackets after ≈: the same amount, converted by molar mass. Read-outs that look alike come from different tables or passages of the source.

What was measured:
[1] = tested on: Burkolderia cenocepacia; experiment: microbe, parasite or virus in culture; settings: for MIC Burkolderia cenocepacia: MDR strain, MH broth pH 7.4, 16–20 h, 37 °C; for MIC B. cenocepacia: supplementary CSV
Method: (§1) Antimicrobial activity was determined for all peptides on E. coli W3110, P. aeruginosa PAO1, A. baumannii ATCC19606, K. pneumoniae NCTC418, and methicillin-resistant S. aureus COL and for selected peptides on P. aeruginosa PA14 and the polymyxin B-resistant derivatives PA14 4.13, PA14 4.18, and PA14 2P4 as well as the clinical isolates ZEM-1A and ZEM9A, K. pneumoniae OXA-48, Enterobacter cloacae, Stenotrophomonas maltophilia, B. cenocepacia, and Staphylococus epidermis. To determine the MIC, the broth microdilution method was used.[75] A single bacterial colony was grown in LB medium overnight at 37 °C and 180 rpm shaking. The compounds were prepared as stock solutions of 2 mg/mL in sterilized milliQ deionized water, added to the first well of 96-well sterile, polypropylene round-bottom microtiter plates (TPP, untreated, Corning Incorporated, Kennebunk, USA), and diluted serially by 1/2. […] The bacterial inoculum was prepared by measuring the absorbance of the overnight culture, which was diluted to concentration of the bacteria was quantified by measuring absorbance at 600 nm and diluted to an OD600 of 0.022 in MH medium pH 7.4 (Sigma-Aldrich, Buchs, Switzerland). The sample solutions (150 μL) were mixed with 4 μL of diluted bacterial suspension with a final inoculation of about 5 × 10^5 CFU. For each test, two columns of the plate were kept for sterility control (MH medium only) and growth control (MH medium with bacterial inoculum, no compound). […] The plates were incubated at 37 °C for 16–20 h under static conditions. 15 μL of 3-(4,5-dimethylthiazol-2-yl)-2,5-diphenyltetrazolium bromide (MTT)[76] (1 mg/mL in sterilized milliQ deionized water) was added to each well, and the plates were incubated at room temperature until MTT staining was completed. The MIC was defined as the lowest concentration of the dendrimer that inhibits the visible growth of the tested bacteria (yellow) with the unaided eye.

[2] = tested on: Enterobacter cloacae; experiment: microbe, parasite or virus in culture; settings: pH 7.4
Method: as §1

[3] = tested on: P. aeruginosa PA14; experiment: microbe, parasite or virus in culture; settings: for MIC PA14: MH broth pH 7.4, 16–20 h, 37 °C; for MIC P. aeruginosa PA14: supplementary CSV
Method: as §1

[4] = tested on: P. aeruginosa ZEM-1A; experiment: microbe, parasite or virus in culture; settings: pH 7.4
Method: as §1

[5] = tested on: PA14 2P4 (pmrB); experiment: microbe, parasite or virus in culture; settings: supplementary CSV
Method: as §1

[6] = tested on: PA14 4.13 (phoQ); experiment: microbe, parasite or virus in culture; settings: supplementary CSV
Method: as §1

[7] = tested on: PA14 4.18 (pmrB); experiment: microbe, parasite or virus in culture; settings: supplementary CSV
Method: as §1

[8] = tested on: P. aeruginosa ZEM9A; experiment: microbe, parasite or virus in culture; assay type: cell-based, Pseudomonas aeruginosa; settings: pH 7.4
Method: as §1

[9] = tested on: K. pneumoniae Oxa-48; experiment: MIC broth microdilution, K. pneumoniae Oxa-48; assay type: cell-based, Klebsiella pneumoniae; settings: MDR strain; MH broth pH 7.4, 16–20 h, 37 °C
Method: as §1

[10] = tested on: Stenotrophomonas maltophilia; experiment: microbe, parasite or virus in culture; assay type: cell-based; settings: pH 7.4
Method: as §1

[11] = tested on: Staphylococcus epidermis; experiment: MIC broth microdilution, Staphylococcus epidermis; assay type: cell-based; settings: pH 7.4
Method: as §1

[12] = tested on: HEK293 cells; experiment: Alamar blue cytotoxicity, HEK293; assay type: cell-based, human; settings: 24 h, mean ± SD, n = 3, read-out: Toxicity on HEK293 cells
Method: (§2) The A549 human lung adenocarcinoma cells are derived from a patient and were kindly given to us by Dr. Georgia Konstatinidou (Pharmacology Institute, Bern University). HEK293T cells were obtained from ATCC (CRL-11268). A549 and HEK293 were cultured in an incubator at 37 °C with 5% CO2 in RPMI-1640 (Gibco) and DMEM (Gibco) containing 10% fetal bovine serum (Thermo Fisher), 100 I.U./mL penicillin, and 100 μg/mL streptomycin (Gibco).
(§3) The viability of the cells was assessed with an AlamarBlue assay (ThermoFisher). Cells were seeded into 96-well plates, 4000 cells/well (HEK293) and 8000 cells/well (A549), the day before the experiment. Cells were then treated with the increasing concentration of the compound and incubated for 24 h at 37 °C in the presence of 5% CO2. The next day, the medium was removed and replaced by a 10% AlamarBlue solution in full growth medium (DMEM or RPMI-1640). The cells were incubated for 3–5 h at 37 °C with 5% CO2 in a humidified atmosphere. The fluorescence was then measured on a Tecan Infinite M1000 Pro plate reader at λex 560 nm and λem 590 nm. The value was normalized according to the untreated cells.

[13] = tested on: A549 cells; experiment: Alamar blue cytotoxicity, A549; assay type: cell-based, human; settings: 24 h, mean ± SD, n = 3, read-out: Toxicity on A549 lung cancern cells
Method: as §2, §3

[14] = tested on: A. baumannii ATCC19606
How it was run: (§4)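 Compounds were 2-fold serially diluted from a 2 mg/mL stock and plates were incubated statically for 16–20 h at 37 °C. MIC is the lowest concentration preventing visible growth, read after MTT staining.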

[15] = tested on: E. coli W3110
How it was run: as §4

[16] = tested on: K. pneumoniae NCTC418
How it was run: as §4

[17] = tested on: P. aeruginosa PAO1
How it was run: as §4

[18] = tested on: S. aureus COL MRSA; settings: for MIC S. aureus COL MRSA: MH broth pH 7.4, 16–20 h, 37 °C; for MIC S. aureus COL: supplementary CSV, ranges of Table 1 given as one number
How it was run: as §4

[19] = tested on: S. aureus Newman; settings: for MIC S. aureus Newman: MH broth pH 7.4, 16–20 h, 37 °C; for MIC S. aureus Newmann: supplementary CSV
[20] = MH broth pH 7.4, 16–20 h, 37 °C
[21] = supplementary CSV, ranges of Table 1 given as one number

CC(C)C[C@H](NC(=O)[C@H](CC(C)C)NC(=O)[C@H](CC(C)C)NC(=O)[C@H](CCCCN)NC(=O)[C@H](CC(C)C)NC(=O)[C@H](CC(C)C)NC(=O)[C@H](CCCCN)NC(=O)[C@H](CC(C)C)NC(=O)[C@H](CC(C)C)NC(=O)[C@H](CCCCN)NC(=O)[C@@H](N)CCCCN)C(N)=O [ln65]
MIC Burkolderia cenocepacia [1]: >64 µg/mL
MIC B. cenocepacia [1]: > 64 µg/mL
MIC Enterobacter cloacae [2]: 2 µg/mL (≈ 1.51 µM)
MIC PA14 [3]: 2 to 4 µg/mL
MIC P. aeruginosa PA14 [3]: 3 µg/mL (≈ 2.27 µM)
MIC ZEM-1A [4]: 4 µg/mL (≈ 3.03 µM)
MIC P. aeruginosaPA14 2P4 [5]: 32 µg/mL (≈ 24.2 µM)
MIC P. aeruginosa PA14 4.13 [6]: 4 µg/mL (≈ 3.03 µM)
MIC P. aeruginosa PA14 4.18 [7]: 32 µg/mL (≈ 24.2 µM)
MIC ZEM9A [8]: 4 µg/mL (≈ 3.03 µM)
MIC K. pneumoniae Oxa-48 [9]: 2 µg/mL (≈ 1.51 µM)
MIC Stenotrophomonas maltophilia [10]: 2 µg/mL (≈ 1.51 µM)
MIC Staphylococcus epidermis [11]: 2 µg/mL (≈ 1.51 µM)
IC50 [12]: 27 ± 5.4 µM
IC50 [13]: 20 ± 0.9 µM
MIC A. baumannii ATCC19606 [14, 20]: 2 to 4 µg/mL
MIC A. baumannii ATCC19606 [14, 21]: 3 µg/mL (≈ 2.27 µM)
MIC E. coli W3110 [15, 20]: 4 µg/mL (≈ 3.03 µM)
MIC K. pneumoniae NCTC418 [16, 20]: 4 µg/mL (≈ 3.03 µM)
MIC K. pneumoniae NCTC418 [16, 21]: 4 µg/mL (≈ 3.03 µM)
MIC P. aeruginosa PAO1 [17, 20]: 2 to 4 µg/mL
MIC P. aeruginosa PAO1 [17, 21]: 3 µg/mL (≈ 2.27 µM)
MIC S. aureus COL MRSA [18]: 4 µg/mL (≈ 3.03 µM)
MIC S. aureus COL [18]: 4 µg/mL (≈ 3.03 µM)
MIC S. aureus Newman [19]: 2 µg/mL (≈ 1.51 µM)
MIC S. aureus Newmann [19]: 2 µg/mL (≈ 1.51 µM)

CC(C)C[C@H](NC(=O)[C@H](CC(C)C)NC(=O)[C@H](CC(C)C)NC(=O)[C@H](CCCCN)NC(=O)[C@H](CC(C)C)NC(=O)[C@H](CC(C)C)NC(=O)[C@@H](CCCCN)NC(=O)[C@H](CC(C)C)NC(=O)[C@H](CC(C)C)NC(=O)[C@@H](CCCCN)NC(=O)[C@H](N)CCCCN)C(N)=O [HP10, kkLLkLLKLLL]
MIC Burkolderia cenocepacia [1]: >64 µg/mL
MIC B. cenocepacia [1]: > 64 µg/mL
MIC Enterobacter cloacae [2]: 2 µg/mL (≈ 1.51 µM)
MIC PA14 [3]: 2 µg/mL (≈ 1.51 µM)
MIC P. aeruginosa PA14 [3]: 2 µg/mL (≈ 1.51 µM)
MIC ZEM-1A [4]: 2 µg/mL (≈ 1.51 µM)
MIC P. aeruginosaPA14 2P4 [5]: 32 µg/mL (≈ 24.2 µM)
MIC P. aeruginosa PA14 4.13 [6]: 4 µg/mL (≈ 3.03 µM)
MIC P. aeruginosa PA14 4.18 [7]: 16 µg/mL (≈ 12.1 µM)
MIC ZEM9A [8]: 4 µg/mL (≈ 3.03 µM)
MIC K. pneumoniae Oxa-48 [9]: 2 µg/mL (≈ 1.51 µM)
MIC Stenotrophomonas maltophilia [10]: 2 µg/mL (≈ 1.51 µM)
MIC Staphylococcus epidermis [11]: 2 µg/mL (≈ 1.51 µM)
IC50 [12]: 75.1 ± 1.7 µM
IC50 [13]: 15 ± 0.7 µM
MIC A. baumannii ATCC19606 [14, 20]: 2 µg/mL (≈ 1.51 µM)
MIC A. baumannii ATCC19606 [14, 21]: 2 µg/mL (≈ 1.51 µM)
MIC E. coli W3110 [15, 20]: 2 µg/mL (≈ 1.51 µM)
MIC K. pneumoniae NCTC418 [16, 20]: 4 µg/mL (≈ 3.03 µM)
MIC K. pneumoniae NCTC418 [16, 21]: 4 µg/mL (≈ 3.03 µM)
MIC P. aeruginosa PAO1 [17, 20]: 4 µg/mL (≈ 3.03 µM)
MIC P. aeruginosa PAO1 [17, 21]: 4 µg/mL (≈ 3.03 µM)
MIC S. aureus COL MRSA [18]: 2 µg/mL (≈ 1.51 µM)
MIC S. aureus COL [18]: 2 µg/mL (≈ 1.51 µM)
MIC S. aureus Newman [19]: 2 µg/mL (≈ 1.51 µM)
MIC S. aureus Newmann [19]: 2 µg/mL (≈ 1.51 µM)

CC(C)C[C@H](NC(=O)[C@H](CC(C)C)NC(=O)[C@H](CC(C)C)NC(=O)[C@H](CCCCN)NC(=O)[C@H](CC(C)C)NC(=O)[C@H](CC(C)C)NC(=O)[C@H](CCCCN)NC(=O)[C@@H](CC(C)C)NC(=O)[C@H](CC(C)C)NC(=O)[C@@H](CCCCN)NC(=O)[C@@H](N)CCCCN)C(N)=O [HP4, KkLlKLLKLLL]
MIC Burkolderia cenocepacia [1]: >64 µg/mL
MIC Enterobacter cloacae [2]: 2 µg/mL (≈ 1.51 µM)
MIC PA14 [3]: 2 µg/mL (≈ 1.51 µM)
MIC P. aeruginosa PA14 [3]: 2 µg/mL (≈ 1.51 µM)
MIC ZEM-1A [4]: 2 µg/mL (≈ 1.51 µM)
MIC P. aeruginosaPA14 2P4 [5]: 64 µg/mL (≈ 48.4 µM)
MIC P. aeruginosa PA14 4.13 [6]: 4 µg/mL (≈ 3.03 µM)
MIC P. aeruginosa PA14 4.18 [7]: 32 µg/mL (≈ 24.2 µM)
MIC ZEM9A [8]: 4 µg/mL (≈ 3.03 µM)
MIC K. pneumoniae Oxa-48 [9]: 2 µg/mL (≈ 1.51 µM)
MIC Stenotrophomonas maltophilia [10]: 2 µg/mL (≈ 1.51 µM)
MIC Staphylococcus epidermis [11]: 2 µg/mL (≈ 1.51 µM)
IC50 [12]: 43.7 ± 0.8 µM
IC50 [13]: 4.6 ± 4.9 µM
MIC A. baumannii ATCC19606 [14, 20]: 2 to 4 µg/mL
MIC A. baumannii ATCC19606 [14, 21]: 3 µg/mL (≈ 2.27 µM)
MIC E. coli W3110 [15, 20]: 2 to 4 µg/mL
MIC E. coli W3110 [15, 21]: 3 µg/mL (≈ 2.27 µM)
MIC K. pneumoniae NCTC418 [16, 20]: 2 µg/mL (≈ 1.51 µM)
MIC K. pneumoniae NCTC418 [16, 21]: 2 µg/mL (≈ 1.51 µM)
MIC P. aeruginosa PAO1 [17, 20]: 2 to 4 µg/mL
MIC P. aeruginosa PAO1 [17, 21]: 3 µg/mL (≈ 2.27 µM)
MIC S. aureus COL MRSA [18]: 2 to 4 µg/mL
MIC S. aureus COL [18]: 3 µg/mL (≈ 2.27 µM)
MIC S. aureus Newman [19]: 2 µg/mL (≈ 1.51 µM)
MIC S. aureus Newmann [19]: 2 µg/mL (≈ 1.51 µM)
